Experiments:
Format in all cases: biochemical
[1] = target: T1, full-length human CSNK1A1 (Homo sapiens, UniProt P48729); assay: CSNK1A1 Assay 2 (ADP-Glo, 1 μM ATP, substrate biotin-Ahx-KRRRAL-pS-VASLPGL); details: Table 3, read-out: CSNK1A1 Assay 2 IC50 [mol/l] (median)
T1 construct: N-terminal Glutathion-S-Transferase (GST) and full-length human CSNK1A1; purchased Life Technologies PV4174; host or cells: baculovirus infected insect cells
Method: CSNK1A1-inhibitory activity of compounds of the present invention in presence of 1 μM adenosine-tri-phosphate (ATP) was quantified employing the CSNK1A1 assay as described in the following paragraphs. In essence, the enzyme activity is measured by quantification of the adenosine-di-phosphate (ADP), which is generated as a co-product of the enzyme reaction, via the “ADP-Glo™ Kinase Assay” kit from the company Promega. This detection system works as follows: In a first step the ATP not consumed in the kinase reaction is quantitatively converted to cAMP employing an adenylate cyclase (“ADP-Glo-reagent”), then the adenylate cyclase is stopped and the ADP generated in the kinase reaction converted to ATP which generates in a luciferase-based reaction a glow-luminescence signal (“Kinase Detection Reagent”).
(§1) Recombinant fusion protein of N-terminal Glutathion-S-Transferase (GST) and full-length human CSNK1A1, expressed by baculovirus infected insect cells and purified via Glutathion affinity chromatography, was purchased from Life Technologies (product no. PV4174) and used as enzyme. As substrate for the kinase reaction the biotinylated peptide biotin-Ahx-KRRRAL-pS-VASLPGL (C-terminus in amide form) was used which can be purchased e.g. from the company Biosyntan (Berlin-Buch, Germany).
For the assay 50 nl of a 100 fold concentrated solution of the test compound in DMSO was pipetted into a white 1536-well microtiter plate (Greiner Bio-One, Frickenhausen, Germany), 2 μL of a solution of CSNK1A1 in aqueous assay buffer [50 mM HEPES pH 7.5, 10% (v/v) glycerol, 10 mM MgCl2, 50 mM NaCl, 1 mM dithiothreitol, 0.01% (w/v) bovine serum albumin, 0.01% (v/v) Triton X-100] were added and the mixture was incubated for 15 min at 22° C. to allow pre-binding of the test compounds to the enzyme before the start of the kinase reaction. […] The concentration of CSNK1A1 was adjusted depending of the activity of the enzyme lot and was chosen appropriate to have the assay in the linear range, a typical concentrations are about 0.0375 ng/μL. The reaction was stopped by the addition of 2.5 μL of “ADP-Glo-reagent” (1:1.5 fold diluted with water) and the resulting mixture was incubated at 22° C. for 1 h to convert the ATP not consumed in the kinase reaction completely […]. Subsequently 2.5 μL of the “kinase detection reagent” (1.2 fold more concentrated than recommended by the producer) were added, the resulting mixture was incubated at 22° C. for 1 h and then the luminescence measured with a suitable measurement instrument (e.g. Viewlux™ from Perkin-Elmer). The amount of emitted light was taken as a measure for the amount of ADP generated and thereby for the activity of the CSNK1A1.

full-length human CSNK1D = target: T2, full-length human CSNK1D (Homo sapiens, UniProt P48730); assay: CSNK1D Assay (ADP-Glo, 1 μM ATP); details: Table 3, read-out: CSNK1D IC50 [mol/l] (median)
T2 construct: N-terminal Glutathion-S-Transferase (GST) and full-length human CSNK1D; purchased Life Technologies PV3665; host or cells: baculovirus infected insect cells
Method: CSNK1D-inhibitory activity of compounds of the present invention in presence of 1 μM adenosine-tri-phosphate (ATP) was quantified employing the CSNK1 D assay as described in the following paragraphs. In essence, the enzyme activity is measured by quantification of the adenosine-di-phosphate (ADP), which is generated as a co-product of the enzyme reaction, via the “ADP-Glo™ Kinase Assay” kit from the company Promega. This detection system works as follows: In a first step the ATP not consumed in the kinase reaction is quantitatively converted to cAMP employing an adenylate cyclase (“ADP-Glo-reagent”), then the adenylate cyclase is stopped and the ADP generated in the kinase reaction converted to ATP which generates in a luciferase-based reaction a glow-luminescence signal (“Kinase Detection Reagent”).
as §1, with “CSNK1D,” for “CSNK1A1,”, “PV3665)” for “PV4174)”, “Btn-Ahx-[…]” for “biotin-Ahx-KRRRAL-pS-VASLPGL”
For the assay 50 nl of a 100 fold concentrated solution of the test compound in DMSO was pipetted into a white 1536-well microtiter plate (Greiner Bio-One, Frickenhausen, Germany), 2 μL of a solution of CSNK1D in aqueous assay buffer [50 mM HEPES pH 7.5, 10% (v/v) glycerol, 10 mM MgCl2, 50 mM NaCl, 1 mM dithiothreitol, 0.01% (w/v) bovine serum albumin, 0.01% (v/v) Triton X-100] were added and the mixture was incubated for 15 min at 22° C. to allow pre-binding of the test compounds to the enzyme before the start of the kinase reaction. […] The concentration of CSNK1D was adjusted depending of the activity of the enzyme lot and was chosen appropriate to have the assay in the linear range, a typical concentration is about 0.5 ng/μL. The reaction was stopped by the addition of 2.5 μL of “ADP-Glo-reagent” (1:1.5 fold diluted with water) and the resulting mixture was incubated at 22° C. for 1 h to convert the ATP not consumed in the kinase reaction completely […]. Subsequently 2.5 μL of the “kinase detection reagent” (1.2 fold more concentrated than recommended by the producer) were added, the resulting mixture was incubated at 22° C. for 1 h and then the luminescence measured with a suitable measurement instrument (e.g. Viewlux™ from Perkin-Elmer). The amount of emitted light was taken as a measure for the amount of ADP generated and thereby for the activity of the CSNK1D.

[2] = target: T1, full-length human CSNK1A1; assay: CSNK1A1 High ATP Assay (ADP-Glo, 1 mM ATP); details: Table 3, read-out: CSNK1A1 high ATP assay IC50 [mol/l] (median);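 note: 30 min kinase reaction at 22 °C with 100 µM peptide substrate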
Method: CSNK1A1-inhibitory activity of compounds of the present invention in presence of 1 mM adenosine-tri-phosphate (ATP) was quantified employing the CSNK1A1-high-ATP-assay as described in the following paragraphs. In essence, the enzyme activity is measured by quantification of the adenosine-di-phosphate (ADP), which is generated as a co-product of the enzyme reaction, via the “ADP-Glo™ Kinase Assay” kit from the company Promega. This detection system works as follows: In a first step the ATP not consumed in the kinase reaction is quantitatively converted to cAMP employing an adenylate cyclase (“ADP-Glo-reagent”), then the adenylate cyclase is stopped and the ADP generated in the kinase reaction converted to ATP which generates in a luciferase-based reaction a glow-luminescence signal (“Kinase Detection Reagent”).
as §1
For the assay 50 nl of a 100 fold concentrated solution of the test compound in DMSO was pipetted into a white low volume 384-well microtiter plate (Greiner Bio-One, Frickenhausen, Germany), 2 μL of a solution of CSNK1A1 in aqueous assay buffer [50 mM HEPES pH 7.5, 10% (v/v) glycerol, 10 mM MgCl2, 50 mM NaCl, 1 mM dithiothreitol, 0.01% (w/v) bovine serum albumin, 0.01% (v/v) Triton X-100] were added and the mixture was incubated for 15 min at 22° C. to allow pre-binding of the test compounds to the enzyme before the start of the kinase reaction. […] The concentration of CSNK1A1 was adjusted depending of the activity of the enzyme lot and was chosen appropriate to have the assay in the linear range, a typical concentration is about 0.4 ng/μL. The reaction was stopped by the addition of 2.5 μL of “ADP-Glo-reagent” (1:1.5 fold diluted with water) and the resulting mixture was incubated at 22° C. for 1 h to convert the ATP not consumed in the kinase reaction completely […]. Subsequently 2.5 μL of the “kinase detection reagent” (1.2 fold more concentrated than recommended by the producer) were added, the resulting mixture was incubated at 22° C. for 1 h and then the luminescence measured with a suitable measurement instrument (e.g. Viewlux™ from Perkin-Elmer). The amount of emitted light was taken as a measure for the amount of ADP generated and thereby for the activity of the CSNK1A1.

T2 sequence (P48730 whole entry): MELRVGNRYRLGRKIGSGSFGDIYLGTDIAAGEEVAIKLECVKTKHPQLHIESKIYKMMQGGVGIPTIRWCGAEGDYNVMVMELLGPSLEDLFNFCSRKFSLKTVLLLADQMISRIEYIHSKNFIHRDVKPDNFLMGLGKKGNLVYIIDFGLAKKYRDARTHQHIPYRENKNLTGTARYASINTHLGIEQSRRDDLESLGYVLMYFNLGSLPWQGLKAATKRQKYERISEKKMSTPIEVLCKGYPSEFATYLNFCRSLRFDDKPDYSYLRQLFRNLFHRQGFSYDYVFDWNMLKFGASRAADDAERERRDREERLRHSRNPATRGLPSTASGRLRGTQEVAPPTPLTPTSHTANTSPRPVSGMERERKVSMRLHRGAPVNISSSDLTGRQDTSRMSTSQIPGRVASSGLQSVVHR
T1 sequence (P48729 whole entry): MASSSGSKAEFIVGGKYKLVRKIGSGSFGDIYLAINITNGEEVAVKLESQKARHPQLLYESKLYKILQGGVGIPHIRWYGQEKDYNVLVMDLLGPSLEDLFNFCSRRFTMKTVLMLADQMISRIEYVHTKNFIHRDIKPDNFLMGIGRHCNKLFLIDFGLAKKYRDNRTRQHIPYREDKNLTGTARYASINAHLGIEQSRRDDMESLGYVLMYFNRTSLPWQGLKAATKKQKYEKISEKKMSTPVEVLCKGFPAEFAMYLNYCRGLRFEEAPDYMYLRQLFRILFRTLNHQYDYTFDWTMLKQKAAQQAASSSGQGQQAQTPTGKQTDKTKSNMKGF

SMILES | IC50 [1] [nM] | IC50 (full-length human CSNK1D) [nM] | IC50 [2] [nM]
Cc1cc(F)nc2c(-c3ccccn3)c(-c3ccnc(NC(=O)C(CC(F)F)c4ccc(F)cc4)c3)[nH]c12 (single isomer, unassigned; (+)) [Example 37, (+)-4,4-difluoro-N-{4-[5-fluoro-7-methyl-3-(pyridin-2-yl)-1H-pyrrolo[3,2-b]pyridin-2-yl]pyridin-2-yl}-2-(4-fluorophenyl)butanamide] | 3.97 | 8.32 | 3.97
O=C(Nc1cc(-c2[nH]c3c(OC4CC4)cc(F)nc3c2-c2ccccn2)ccn1)C(CC(F)F)c1ccc(F)cc1 (single isomer, unassigned) [Example 44, N-{4-[7-(cyclopropyloxy)-5-fluoro-3-(pyridin-2-yl)-1H-pyrrolo[3,2-b]pyridin-2-yl]pyridin-2-yl}-4,4-difluoro-2-(4-fluorophenyl)butanamide] | 6.02 | 5.31 | 6.02
COCCOc1cc(F)nc2c(-c3ccccn3)c(-c3ccnc(NC(=O)C(CC(F)F)c4ccc(F)cc4)c3)[nH]c12 (single isomer, unassigned) [Example 91, (2R or S)-4,4-difluoro-N-{4-[5-fluoro-7-(2-methoxyethoxy)-3-(pyridin-2-yl)-1H-pyrrolo[3,2-b]pyridin-2-yl]pyridin-2-yl}-2-(4-fluorophenyl)butanamide] | 9.57 | 23.4 | 9.57
O=C(Nc1cc(-c2[nH]c3ccc(F)nc3c2-c2ccc(F)cn2)ccn1)C(CC(F)F)c1ccc(F)cc1 (stereo not drawn) [Example 108, 4,4-difluoro-N-{4-[5-fluoro-3-(5-fluoropyridin-2-yl)-1H-pyrrolo[3,2-b]pyridin-2-yl]pyridin-2-yl}-2-(4-fluorophenyl)butanamide] | 4.55 | 5.93 | 4.55
COCCOc1cc(F)nc2c(-c3ccccn3)c(-c3ccnc(NC(=O)C(CC(F)F)c4ccc(F)cc4)c3)[nH]c12 (single isomer, unassigned) [Example 90, (2R or S)-4,4-difluoro-N-{4-[5-fluoro-7-(2-methoxyethoxy)-3-(pyridin-2-yl)-1H-pyrrolo[3,2-b]pyridin-2-yl]pyridin-2-yl}-2-(4-fluorophenyl)butanamide] | 2.43 | 2.5 | 2.43
O=C(Nc1cc(-c2[nH]c3nc(OC(F)F)cnc3c2-c2ccccn2)ccn1)C(CC(F)F)c1ccc(F)cc1 (single isomer, unassigned) [Example 107, N-{4-[3-(difluoromethoxy)-7-(pyridin-2-yl)-5H-pyrrolo[2,3-b]pyrazin-6-yl]pyridin-2-yl}-4,4-difluoro-2-(4-fluorophenyl)butanamide] | 64.6 | 117 | 64.6
O=C(Nc1cc(-c2[nH]c3cc(Cl)cnc3c2-c2ccccn2)ccn1)C(CC(F)F)c1ccc(F)cc1 (stereo not drawn) [Example 87, N-{4-[6-chloro-3-(pyridin-2-yl)-1H-pyrrolo[3,2-b]pyridin-2-yl]pyridin-2-yl}-4,4-difluoro-2-(4-fluorophenyl)butanamide] | 6.08 | 10.8 | 6.08
O=C(Nc1cc(-c2[nH]c3nc(OC(F)F)cnc3c2-c2ccccn2)ccn1)C(CC(F)F)c1ccc(F)cc1 (single isomer, unassigned) [Example 106, N-{4-[3-(difluoromethoxy)-7-(pyridin-2-yl)-5H-pyrrolo[2,3-b]pyrazin-6-yl]pyridin-2-yl}-4,4-difluoro-2-(4-fluorophenyl)butanamide] | 4.32 | 6.1 | 4.32

Reference: patent US12692261B2, “Substituted heterocyclic compounds and therapeutic uses thereof” (Bayer Aktiengesellschaft, priority 2020, dated 2026)
